Data reported in patent US10294202B2, “Pyrrolidinones as herbicides” (FMC Corporation, priority 2013, dated 2019).

Tests used:
[1] = system: galium; assay: Test C pre-/postemergence herbicide test; assay type: in vivo, Galium aparine; conditions: Preemergence
Method in brief: (§1)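 Pre-emergence: seeds sown in loam/sand blend and treated with compound in surfactant-containing solvent. Post-emergence: plants at 2–18 cm (1- to 4-leaf stage) in peat-based medium sprayed with the same formulation. Visual rating versus controls after 13–15 days in greenhouse, scale 0 (no effect) to 100 (complete control).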

[2] = system: rice; assay: Test B flooded paddy test; assay type: in vivo, Oryza sativa; conditions: 250 g ai/ha, Flood; scale of 0 to 100 where 0 is no effect and 100 is complete control
Method in brief: (§2)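 Paddy-water application at a 3 cm flood, young plants having two leaves. Water level maintained; greenhouse, 13–15 days; visual 0–100 control rating.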

[3] = system: lambsquarters; assay: Test C pre-/postemergence herbicide test; assay type: in vivo, Chenopodium album
Method in brief: as §1

[4] = system: crabgrass, large; assay: Test C pre-/postemergence herbicide test; assay type: in vivo, Digitaria sanguinalis
Method in brief: as §1

[5] = system: barnyardgrass; assay: Test A pre-/postemergence herbicide test; assay type: in vivo, Echinochloa crus-galli
Method in brief: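 Seeds in loam–sand blend received preemergence directed soil spray; separately, plants 2–10 cm at one- to two-leaf stage received postemergence spray, both with test chemicals in non-phytotoxic solvent with surfactant. After ~10 days in greenhouse, injury rated visually against untreated controls, 0 (no effect) to 100 (complete control).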

[6] = system: corn; assay: Test C pre-/postemergence herbicide test; assay type: in vivo, Zea mays
Method in brief: as §1

[7] = system: pigweed; assay: Test C pre-/postemergence herbicide test; assay type: in vivo, Amaranthus retroflexus
Method in brief: as §1

[8] = system: blackgrass; assay: Test C pre-/postemergence herbicide test; assay type: in vivo, Alopecurus myosuroides
Method in brief: as §1

[9] = system: foxtail, giant; assay: Test C pre-/postemergence herbicide test; assay type: in vivo, Setaria faberii
Method in brief: as §1

[10] = system: barnyardgrass; assay: Test B flooded paddy test; assay type: in vivo, Echinochloa crus-galli; conditions: 250 g ai/ha, Flood; scale of 0 to 100 where 0 is no effect and 100 is complete control
Method in brief: as §2

[11] = system: velvetleaf; assay: Test C pre-/postemergence herbicide test; assay type: in vivo, Abutilon theophrasti
Method in brief: as §1

[12] = Postemergence, 31 g ai/ha, scale 0 (no effect) to 100 (complete control)
[13] = Postemergence, 125 g ai/ha, scale 0 to 100 (0 no effect, 100 complete control)
[14] = Preemergence, 62 g ai/ha, scale 0 to 100
[15] = Preemergence, 125 g ai/ha, scale 0 to 100 (0 no effect, 100 complete control)
[16] = Preemergence, 16 g ai/ha, scale 0 to 100
[17] = Postemergence, 16 g ai/ha, scale 0 to 100 (0 no effect, 100 complete control)
[18] = Postemergence, 62 g ai/ha, scale 0 to 100 (0 no effect, 100 complete control)
[19] = Preemergence, 31 g ai/ha, scale 0 to 100 (0 no effect, 100 complete control)

Compound: O=C1NCC(c2cc(F)c(F)c(F)c2)C1C(=O)Nc1cccc(F)c1F (stereo not shown) [Compound 48]
- Plant response rating, Galium ([1]; 62 g ai/ha, scale 0 to 100): 30
- Plant response rating, Galium ([1]; 125 g ai/ha, scale 0 to 100 (0 no effect, 100 complete control)): 60
- Plant response rating, Galium ([1]; 16 g ai/ha, scale 0 to 100): 0
- Galium plant response rating ([1]; 31 g ai/ha, scale 0 to 100 (0 no effect, 100 complete control)): 0
- Plant response rating, Rice [2]: 20
- Plant response rating, Lambsquarters [3, 12]: 10
- Plant response rating, Lambsquarters [3, 13]: 10
- Plant response rating, Lambsquarters [3, 14]: 65
- Plant response rating, Lambsquarters [3, 15]: 65
- Plant response rating, Lambsquarters [3, 16]: 0
- Plant response rating, Crabgrass, Large [4, 17]: 20
- Plant response rating, Crabgrass, Large [4, 12]: 40
- Plant response rating, Crabgrass, Large [4, 18]: 65
- Plant response rating, Crabgrass, Large [4, 13]: 75
- Plant response rating, Crabgrass, Large [4, 14]: 90
- Plant response rating, Crabgrass, Large [4, 15]: 95
- Plant response rating, Crabgrass, Large [4, 16]: 75
- Crabgrass, Large plant response rating [4, 19]: 85
- Plant response rating, Barnyardgrass ([5]; Postemergence, 125 g ai/ha, 0 to 100 scale, 0 no effect, 100 complete control): 80
- Plant response rating, Barnyardgrass ([5]; Postemergence, 500 g ai/ha, 0 to 100 scale (0 no effect, 100 complete control)): 90
- Barnyardgrass plant response rating ([5]; Preemergence, 125 g ai/ha, visual rating on 0 to 100 scale (0 no effect, 100 complete control)): 80
- Plant response rating, Barnyardgrass ([5]; preemergence, 500 g ai/ha, 0 to 100 scale (0 no effect, 100 complete control)): 90
- Plant response rating, Corn [6, 17]: 0
- Plant response rating, Corn [6, 12]: 5
- Plant response rating, Corn [6, 18]: 5
- Plant response rating, Corn [6, 13]: 5
- Plant response rating, Corn [6, 14]: 20
- Plant response rating, Corn [6, 15]: 20
- Plant response rating, Corn [6, 16]: 0
- Corn plant response rating [6, 19]: 0
- Plant response rating, Pigweed [7, 17]: 10
- Plant response rating, Pigweed [7, 12]: 25
- Plant response rating, Pigweed [7, 18]: 30
- Plant response rating, Pigweed [7, 13]: 40
- Plant response rating, Pigweed [7, 14]: 0
- Plant response rating, Pigweed [7, 15]: 0
- Plant response rating, Pigweed [7, 16]: 0
- Plant response rating, Blackgrass [8, 17]: 0
- Plant response rating, Blackgrass [8, 12]: 0
- Plant response rating, Blackgrass [8, 18]: 0
- Plant response rating, Blackgrass [8, 13]: 0
- Plant response rating, Blackgrass [8, 14]: 20
- Plant response rating, Blackgrass [8, 15]: 50
- Plant response rating, Blackgrass [8, 16]: 0
- Blackgrass plant response rating [8, 19]: 0
- Plant response rating, Foxtail, Giant [9, 17]: 0
- Plant response rating, Foxtail, Giant [9, 12]: 5
- Plant response rating, Foxtail, Giant [9, 18]: 20
- Plant response rating, Foxtail, Giant [9, 13]: 40
- Plant response rating, Foxtail, Giant [9, 14]: 85
- Plant response rating, Foxtail, Giant [9, 15]: 95
- Plant response rating, Foxtail, Giant [9, 16]: 40
- Foxtail, Giant plant response rating [9, 19]: 80
- Plant response rating, Barnyardgrass [10]: 40
- Plant response rating, Velvetleaf [11, 17]: 0
- Plant response rating, Velvetleaf [11, 12]: 0
- Plant response rating, Velvetleaf [11, 18]: 15
- Plant response rating, Velvetleaf [11, 13]: 35
- Plant response rating, Velvetleaf [11, 14]: 0
- Plant response rating, Velvetleaf [11, 15]: 0
- Plant response rating, Velvetleaf [11, 16]: 0
